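Assay format: 96-well plates, 48-hour exposure. GI50 = concentration required for 50% inhibition of growth.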 Calls of active or inactive are those of the source. No stated cut-off is given here; in the data, active = GI50 up to about 1.1 µM and inactive = higher.
Columns and labels:
Assay in all cases: NCI anticancer screen, dose series, 48 h
[1] = system: HT-29
[2] = system: OVCAR-8
[3] = system: A549
[4] = system: HL-60
[5] = system: UO-31
[6] = system: HOP-92
[7] = system: MOLT-4
[8] = system: SNB-75
[9] = system: RXF 631
[10] = system: 786-0
[11] = system: EKVX
[12] = system: RPMI-8226
[13] = system: SK-MEL-2
[14] = system: SNB-78
[15] = system: CCRF-CEM
[16] = system: IGROV-1
[17] = system: SF-268
[18] = system: K562
[19] = system: SK-OV-3
[20] = system: SK-MEL-28
[21] = system: DLD-1
[22] = system: OVCAR-5
[23] = system: M19-MEL
[24] = system: SR
[25] = system: KM12
[26] = system: Malme-3M
[27] = system: HOP-18
[28] = system: NCI-H522
[29] = system: NCI-H23
[30] = system: RXF 393
[31] = system: ACHN
[32] = system: NCI-H460
[33] = system: CAKI-1
[34] = system: SN12C
[35] = system: SF-295
[36] = system: M14
[37] = system: A498
[38] = system: HCT-116
[39] = system: UACC-62
[40] = system: COLO 205
[41] = system: OVCAR-3
[42] = system: SK-MEL-5
[43] = system: SNB-19
[44] = system: KM-20L2
[45] = system: XF498
[46] = system: TK-10
[47] = system: LOX IMVI
[48] = system: HCT-15
[49] = system: SW-620
[50] = system: SF-539
[51] = system: LXFL 529
[52] = system: U-251
[53] = system: DMS-273
[54] = system: MCF7
[55] = system: HOP-62
[56] = system: UACC-257
[57] = system: DMS-114
[58] = system: OVCAR-4
[59] = system: NCI-H226
[60] = system: NCI/ADR-RES
[61] = system: HCC 2998

Compound: N#Cc1c(N)c(C(=O)O)nn(-c2cccc(C(F)(F)F)c2)c1=O
- GI50 [1]: > 100 µM (inactive)
- GI50 [2]: > 100 µM (inactive)
- GI50 [3]: > 100 µM (inactive)
- GI50 [4]: > 100 µM (inactive)
- GI50 [5]: 76.7 µM (inactive)
- GI50 [6]: 43.4 µM (inactive)
- GI50 [7]: > 100 µM (inactive)
- GI50 [8]: 14 µM (inactive)
- GI50 [9]: > 100 µM (inactive)
- GI50 [10]: > 100 µM (inactive)
- GI50 [11]: 33.6 µM (inactive)
- GI50 [12]: 88.9 µM (inactive)
- GI50 [13]: > 100 µM (inactive)
- GI50 [14]: > 100 µM (inactive)
- GI50 [15]: > 100 µM (inactive)
- GI50 [16]: > 100 µM (inactive)
- GI50 [17]: > 100 µM (inactive)
- GI50 [18]: 64.7 µM (inactive)
- GI50 [19]: > 100 µM (inactive)
- GI50 [20]: > 100 µM (inactive)
- GI50 [21]: 70.3 µM (inactive)
- GI50 [22]: > 100 µM (inactive)
- GI50 [23]: > 100 µM (inactive)
- GI50 [24]: > 100 µM (inactive)
- GI50 [25]: > 100 µM (inactive)
- GI50 [26]: 60 µM (inactive)
- GI50 [27]: 29.2 µM (inactive)
- GI50 [28]: 39 µM (inactive)
- GI50 [29]: > 100 µM (inactive)
- GI50 [30]: 52.5 µM (inactive)
- GI50 [31]: > 100 µM (inactive)
- GI50 [32]: > 100 µM (inactive)
- GI50 [33]: > 100 µM (inactive)
- GI50 [34]: > 100 µM (inactive)
- GI50 [35]: > 100 µM (inactive)
- GI50 [36]: > 100 µM (inactive)
- GI50 [37]: 41 µM (inactive)
- GI50 [38]: > 100 µM (inactive)
- GI50 [39]: 76.9 µM (inactive)
- GI50 [40]: > 100 µM (inactive)
- GI50 [41]: > 100 µM (inactive)
- GI50 [42]: 53 µM (inactive)
- GI50 [43]: > 100 µM (inactive)
- GI50 [44]: > 100 µM (inactive)
- GI50 [45]: > 100 µM (inactive)
- GI50 [46]: > 100 µM (inactive)
- GI50 [47]: > 100 µM (inactive)
- GI50 [48]: 95.1 µM
- GI50 [49]: > 100 µM (inactive)
- GI50 [50]: > 100 µM (inactive)
- GI50 [51]: > 100 µM (inactive)
- GI50 [52]: > 100 µM (inactive)

Compound: COc1ccc2c(c1)CCc1c(CO)c(COC(=O)NC(C)C)n(C)c1-2
- GI50 [1]: 3.14 µM (inactive)
- GI50 [2]: 3.33 µM (inactive)
- GI50 [3]: 6.53 µM (inactive)
- GI50 [4]: 1.59 µM (inactive)
- GI50 [5]: 4.97 µM (inactive)
- GI50 [6]: 4.01 µM (inactive)
- GI50 [7]: 2.68 µM (inactive)
- GI50 [8]: 4.82 µM (inactive)
- GI50 [9]: 13 µM (inactive)
- GI50 [10]: 4.41 µM (inactive)
- GI50 [11]: 22.9 µM (inactive)
- GI50 [12]: 2.24 µM (inactive)
- GI50 [13]: 11.2 µM (inactive)
- GI50 [14]: 4.38 µM (inactive)
- GI50 [15]: 2.64 µM (inactive)
- GI50 [16]: 5.68 µM (inactive)
- GI50 [17]: 6.49 µM (inactive)
- GI50 [18]: 2.41 µM (inactive)
- GI50 [19]: 18.3 µM (inactive)
- GI50 [20]: 5.02 µM (inactive)
- GI50 [21]: 4.72 µM (inactive)
- GI50 [53]: 5.48 µM (inactive)
- GI50 [22]: 24.2 µM (inactive)
- GI50 [23]: 3.7 µM (inactive)
- GI50 [25]: 6.61 µM (inactive)
- GI50 [54]: 9.79 µM (inactive)
- GI50 [26]: 4.15 µM (inactive)
- GI50 [27]: 1.55 µM (inactive)
- GI50 [28]: 3.44 µM (inactive)
- GI50 [55]: 24 µM (inactive)
- GI50 [29]: 2.97 µM (inactive)
- GI50 [30]: 7.55 µM (inactive)
- GI50 [31]: 3.83 µM (inactive)
- GI50 [32]: 5.56 µM (inactive)
- GI50 [33]: 5.81 µM (inactive)
- GI50 [34]: 8.93 µM (inactive)
- GI50 [35]: 9.35 µM (inactive)
- GI50 [56]: 4.42 µM (inactive)
- GI50 [36]: 6.11 µM (inactive)
- GI50 [37]: 9.29 µM (inactive)
- GI50 [57]: 2.59 µM (inactive)
- GI50 [38]: 2.91 µM (inactive)
- GI50 [39]: 5.6 µM (inactive)
- GI50 [40]: 2.09 µM (inactive)
- GI50 [41]: 8.51 µM (inactive)
- GI50 [42]: 4.51 µM (inactive)
- GI50 [43]: 6.87 µM (inactive)
- GI50 [44]: 6.59 µM (inactive)
- GI50 [58]: 4.34 µM (inactive)
- GI50 [45]: 7.83 µM (inactive)
- GI50 [46]: 14.6 µM (inactive)
- GI50 [47]: 4.91 µM (inactive)
- GI50 [59]: 2.68 µM (inactive)
- GI50 [60]: 16.1 µM (inactive)
- GI50 [48]: 13 µM
- GI50 [61]: 8.85 µM (inactive)
- GI50 [49]: 3.74 µM (inactive)
- GI50 [50]: 12.9 µM (inactive)
- GI50 [51]: 3.21 µM (inactive)
- GI50 [52]: 5.41 µM (inactive)

Reference: ChEMBL document CHEMBL1201862, “PubChem BioAssay data set” (2004)
